{"source": "patent US20090318492A1", "about": "“INDOLE COMPOUNDS HAVING C4-ACIDIC SUBSTITUENTS AND USE THEREOF AS PHOSPHOLIPASE-A2 INHIBITORS” (priority 2005, published 2009)", "key": {"[1]": {"molecular_target": "T1, human group 1B PLA2 (hps PLA2) (Homo sapiens, UniProt P04054)", "T1 construct": "made in house; host or cells: E. coli", "T1 sequence (P04054 23-148)": "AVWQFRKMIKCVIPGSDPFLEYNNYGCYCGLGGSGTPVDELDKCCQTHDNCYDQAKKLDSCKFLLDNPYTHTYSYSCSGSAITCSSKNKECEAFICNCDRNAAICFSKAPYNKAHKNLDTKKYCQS", "assay": "Example 8 fluorimetric PLA2 inhibition assay (PPyrPM), human enzyme", "assay_type": "biochemical", "details": "read-out: ILYPSA IC50 hps PLA2", "from_the_text": "(§1) In this example, a fluorimetric assay procedure was used to evaluate the indole and indole-related compounds of the invention as inhibitors of group 1B phospholipase A2 (PLA2) from human, mouse and porcine. A description of this assay is found in articles: Leslie, C C and Gelb, M H (2004) Methods in Molecular Biology “Assaying phospholipase A2 activity”, 284:229-242; Singer, A G, et al. (2002) Journal of Biological Chemistry “Interfacial kinetic and binding properties of the complete set of human and mouse groups I, II, V, X, and XII secreted phospholipases A2”, 277:48535-48549, which are incorporated herein as references.\nIn general, this assay used a phosphatidylmethanol substrate with a pyrene fluorophore on the terminal end of the sn-2 fatty acyl chain. Without being bound by theory, close proximity of the pyrenes from neighboring phospholipids in a phospholipid vesicle caused the spectral properties to change relative to that of monomeric pyrene. Bovine serum albumin was present in the aqueous phase and captured the pyrene fatty acid when it is liberated from the glycerol backbone owing to the PLA2-catalyzed reaction. […] The effect of a given inhibitor and inhibitor concentration on human, mouse and porcine phospholipase was determined. […]\n(§2) The following procedure was performed to evaluate the inhibitory potency of the evaluated compounds. • 1. […]"}, "[2]": {"molecular_target": "T2, Porcine group 1B phospholipase A2 (pps PLA2) (Sus scrofa, UniProt P00592)", "T2 construct": "purchased", "T2 sequence (P00592 23-146)": "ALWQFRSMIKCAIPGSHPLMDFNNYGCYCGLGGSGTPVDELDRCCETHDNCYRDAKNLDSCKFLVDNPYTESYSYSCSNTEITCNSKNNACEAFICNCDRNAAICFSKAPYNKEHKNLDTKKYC", "assay": "Example 8 fluorimetric PLA2 inhibition assay (PPyrPM), porcine enzyme", "assay_type": "biochemical", "details": "read-out: ILYPSA IC50 pps PLA2", "from_the_text": "as §1\nIn general, this assay used a phosphatidylmethanol substrate with a pyrene fluorophore on the terminal end of the sn-2 fatty acyl chain. […] The effect of a given inhibitor and inhibitor concentration on human, mouse and porcine phospholipase was determined. […]\nThe following procedure was performed to evaluate the inhibitory potency of the evaluated compounds. • 1. […] The fluorescence was read using an excitation of 342 nm and an emission of 395 nm.\nEvaluated compounds were tested in duplicate and their values were averaged to plot the inhibition curve and calculate the IC50. […] The IC50 was calculated using the BioDataFit 1.02 (Four Parameter Model) software package. […]"}, "[3]": {"molecular_target": "T3, mouse group 1B PLA2 (mps PLA2) (Mus musculus, UniProt Q9Z0Y2)", "T3 construct": "made in house; host or cells: E. coli", "T3 sequence (Q9Z0Y2 23-146)": "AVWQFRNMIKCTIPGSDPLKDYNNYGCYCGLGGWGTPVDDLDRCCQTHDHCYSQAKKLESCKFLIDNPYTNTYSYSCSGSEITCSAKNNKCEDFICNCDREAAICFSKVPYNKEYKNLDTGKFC", "assay": "Example 8 fluorimetric PLA2 inhibition assay (PPyrPM), mouse enzyme", "assay_type": "biochemical", "from_the_text": "as §1\nIn general, this assay used a phosphatidylmethanol substrate with a pyrene fluorophore on the terminal end of the sn-2 fatty acyl chain. Without being bound by theory, close proximity of the pyrenes from neighboring phospholipids in a phospholipid vesicle caused the spectral properties to change relative to that of monomeric pyrene. Bovine serum albumin was present in the aqueous phase and captured the pyrene fatty acid when it is liberated from the glycerol backbone owing to the PLA2-catalyzed reaction. However, a potent inhibitor can inhibit the liberation of pyrene fatty acid from the glycerol backbone. […] The effect of a given inhibitor and inhibitor concentration on human, mouse and porcine phospholipase was determined.\nRecombinant human and mouse group 1B PLA2 were cloned and expressed in E. coli as insoluble inclusion bodies. The inclusion bodies were isolated and purified by sonicating cell pellet in lysis buffer (50 mM Tris-HCl pH 7.0, 250 mM NaCl, 0.5% Triton 100), centrifugation at 12,000×g, and washing three times in washing buffer (20 mM Tris-HCl pH 7.0, 250 mM NaCl, 0.5% Triton 100). […]\nas §2"}, "Caco-2 cells": {"test_system": "Caco-2 cells", "assay": "Example 6B Caco-2 permeability study", "assay_type": "in vitro ADME, human", "procedure": "The culture medium was refreshed every 48 hours.\nPapp=(dQ/dt)×(1/C0)×(1/A)"}, "[4]": {"assay": "Example 6C pharmokinetic study of ILY-4001 (IV and oral)", "assay_type": "in vivo, mice", "details": "30 mg/kg oral", "from_the_text": "This example characterized ILY-4001 [2-(3-(2-amino-2-oxoacetyl)-1-(biphenyl-2-ylmethyl)-2-methyl-1H-indol-4-yloxy)acetic acid], alternatively referred to herein as methyl indoxam, with respect to activity, as determined by IC50 assay (Example 6A), with respect to cell absorbtion, as determined by in-vitro Caco-2 assay (Example 6B) and with respect to bioavailability, as determined using in-vivo mice studies (Example 6C).\nThis example evaluated the bioavailability of ILY-4001 [2-(3-(2-amino-2-oxoacetyl)-1-(biphenyl-2-ylmethyl)-2-methyl-1H-indol-4-yloxy)acetic acid], alternatively referred to herein as methyl indoxam. […]\nBioavailability was calculated as a ratio of AUC-oral/AUC-intravenous (IV). To determine this ratio, a first set of subject animals were given a measured intravenous (IV) dose of ILY-4001, followed by a determination of ILY-4001 levels in the blood at various time points after administration (e.g., 5 minutes through 24 hours). Another second set of animals was similarly dosed using oral administration, with blood levels of ILY-4001 determined at various time points after administration (e.g., 30 minutes through 24 hours). The level of ILY-4001 in system to circulation were determined by generally accepted methods (for example as described in Evans, G., A Handbook of Bioanalysis and Drug Metabolism. Boca Raton, CRC Press (2004)). […]"}, "[5]": {"test_system": "C57BL/6 (wt) mice on high fat/high sucrose diabetogenic diet", "assay": "Example 5 in-vivo evaluation in mice on high fat/high sucrose diabetogenic diet", "parameters": "species or system mouse", "details": "for body weight gain compared to wild-type control group: week 4 and week 10; for plasma levels of cholesterol / plasma levels of triglycerides: 10 weeks", "procedure": "ILY-4001 (FIG. 2) was evaluated as a PLA2 IB inhibitor in a set of experiments using wild-type mice and genetically deficient PLA2 (−/−) mice (also referred to herein as PLA2 knock-out (KO) mice). In these experiments, wild-type and PLA2 (−/−) mice were maintained on a high fat/high sucrose diet, details of which are described below.\nBriefly, four groups were set up, each having six mice. Three of the groups included six wild-type PLA2 (+/+) mice in each group (eighteen mice total), and one of the groups included six genetically deficient PLA2 (−/−) mice. One of the wild-type groups was used as a wild-type control group, and was not treated with ILY-4001. The other two wild-type groups were treated with ILY-4001-one group at a lower dose (indicated as “L” in Table 1) of 25 mg/kg/day, and the other at a higher dose (indicated as “H” in Table 1) of 90 mg/kg/day. The group comprising the PLA2 (−/−) mice was used as a positive control group.\nThe experimental protocol used in this study was as follows. The four groups of mice, including wild type and isogenic PLA2 (−/−) C57BL/J mice were acclimated for three days on a low fat/low carbohydrate diet. After the three day acclimation phase, the animals were fasted overnight and serum samples taken to establish baseline plasma cholesterol, triglyceride, and glucose levels, along with baseline body weight. The mice in each of the treatment groups were then fed a high fat/high sucrose diabetogenic diet (Research Diets D12331). 1000 g of the high fat/high sucrose D12331 diet was composed of casein (228 g), DL-methionine (2 g), maltodextrin 10 (170 g), sucrose (175 g), soybean oil (25 g), hydrogenated coconut oil (333.5 g), mineral mix S10001 (40 g), sodium bicarbonate (10.5 g), potassium citrate (4 g), vitamin mix V10001 (10 g), and choline bitartrate (2 g). This diet was supplemented with ILY-4001 treatments such that the average daily dose of the compound ingested by a 25 g mouse was: 0 mg/kg/day (wild-type control group and PLA2 (−/−) control group); 25 mg/kg/day (low-dose wild-type treatment group), or 90 mg/kg/day (high-dose wild-type treatment group). The animals were maintained on the high fat/high sucrose diet, with the designated ILY-4001 supplementation, for a period of ten weeks.\nBody weight measurements were taken for all animals in all treatment and control groups at the beginning of the treatment period and at 4 weeks and 10 weeks after initiation of the study. (See Example 5A). Blood draws were also taken at the beginning of the treatment period (baseline) and at 4 weeks and 10 weeks after initiation of the study, in order to determine fasting glucose (See Example 5B). Cholesterol and triglyceride levels were determined from blood draws taken at the beginning of the treatment (baseline) and at ten weeks. (See Example 5C)."}, "human PLA2 IB enzyme": {"molecular_target": "human PLA2 IB enzyme (Homo sapiens, UniProt P04054)", "sequence (P04054 23-148)": "as the sequence (P04054 23-148) above", "details": "versus the human PLA2 IB enzyme; Singer, Ghomashchi et al. 2002; cited from earlier work"}, "mouse PLA2 IB enzyme": {"molecular_target": "mouse PLA2 IB enzyme (Mus musculus, UniProt Q9Z0Y2)", "sequence (Q9Z0Y2 23-146)": "as the sequence (Q9Z0Y2 23-146) above", "details": "versus the mouse PLA2 IB enzyme; Singer, Ghomashchi et al. 2002; cited from earlier work"}, "[6]": {"details": "predicted to survive passage through the stomach; cited from earlier work"}}, "note": "Read-outs that look alike come from different tables or passages of the source."}
{"molecule": "2-(3-Aminooxalyl-1-{12-[3-aminooxalyl-4-(1-carboxy-2-methyl-propoxy)-2-methyl-indol-1-yl]-dodecyl}-2-methyl-1H-indol-4-yloxy)-3-methyl-butyric acid [ILY-V-44]", "values": [{"measurement": "IC50", "setting": "[1]", "value": 280, "unit": "nM"}, {"measurement": "IC50", "setting": "[2]", "value": 50, "unit": "nM"}, {"measurement": "IC50", "setting": "[3]; read-out: ILYPSA IC50 mps PLA2", "value": 480, "unit": "nM"}]}
{"molecule": "Cc1c(C(=O)C(N)=O)c2c(OCC(=O)O)cccc2n1Cc1ccccc1-c1ccccc1", "note": "[ILY-4001, 2-(3-(2-amino-2-oxoacetyl)-1-(biphenyl-2-ylmethyl)-2-methyl-1H-indol-4-yloxy)acetic acid]", "values": [{"measurement": "absorbtion from the GI lumen", "setting": "Caco-2 cells; based on Caco-2 assays and pharmokinetic studies", "value": "relatively low absorbtion"}, {"measurement": "level of non-absorption from the GI tract into systemic circulation", "setting": "[4]", "value": "~72", "unit": "%"}, {"measurement": "body weight gain compared to wild-type control group", "setting": "[5]; 25 mg/kg/d in diet", "value": "significantly reduced body weight gains"}, {"measurement": "body weight gain compared to wild-type control group", "setting": "[5]; 90 mg/kg/d in diet", "value": "significantly reduced body weight gains"}, {"measurement": "plasma levels of cholesterol", "setting": "[5]; high dose (90 mg/kg/day)", "value": "substantially reduced"}, {"measurement": "plasma levels of triglycerides", "setting": "[5]; high dose (90 mg/kg/day)", "value": "substantially reduced"}, {"measurement": "plasma levels of cholesterol", "setting": "[5]; low dose (25 mg/kg/day)", "value": "substantially reduced"}, {"measurement": "plasma levels of triglycerides", "setting": "[5]; low dose (25 mg/kg/day)", "value": "substantially reduced"}, {"measurement": "fasting glucose levels", "setting": "[5]; low dose (25 mg/kg/day), week four", "value": "moderately beneficial effect"}, {"measurement": "fasting glucose levels", "setting": "[5]; low dose (25 mg/kg/day), week ten", "value": "beneficial effect was not observed"}, {"measurement": "IC50", "setting": "human PLA2 IB enzyme", "value": "~200", "unit": "nM"}, {"measurement": "IC50", "setting": "mouse PLA2 IB enzyme", "value": "~150", "unit": "nM"}, {"measurement": "stability at low pH", "setting": "[6]", "value": "stable at low pH"}]}
{"molecule": "Cc1c(C(=O)C(N)=O)c2c(OC(C(=O)O)C(C)C)cccc2n1CCCCCCCCCCCCOc1ccccc1OCCCCCCCCCCCCn1c(C)c(C(=O)C(N)=O)c2c(OC(C(=O)O)C(C)C)cccc21", "note": "(stereo not drawn) [ILY-V-33, 2-{3-Aminooxalyl-1-[12-(2-{12-[3-aminooxalyl-4-(1-carboxy-2-methyl-propoxy)-2-methyl-indol-1-yl]-dodecyloxy}-phenoxy)-dodecyl]-2-methyl-1H-indol-4-yloxy}-3-methyl-butyric acid]", "values": [{"measurement": "IC50", "setting": "[3]", "value": 300, "unit": "nM"}]}
{"molecule": "Lucifer Yellow", "values": [{"measurement": "apparent permeability", "setting": "Caco-2 cells; 10 uM in apical wells, paracellular transport control", "value": "around 2.82×10^−7+/−0.37×10^−7 cm/s"}]}
